Data: patent US10329304B2, “Compounds and methods for inhibition of hedgehog signaling and phosphodiesterase” (Vanderbilt University, priority 2014, dated 2019)
Entries after “also recorded” stand apart in the source; their conditions may differ. Where two headings read alike, the source gives them in different places.

What was measured:
MCF7 = assay: Cell viability assay (CellTiter-Blue, 72 hr); type: cell-based; conditions: human cancer cells
Protocol: (§1) Cancer cell lines were seeded in 96 well tissue culture plate at a low density (10,000 cells per well) and treated with varying concentrations of Eggmanone. After 72 hr incubation, CellTiter-Blue Cell Viability Assay (Promega, Madison, Wis.) was then performed according to manufacturer's protocol. Absorbance was then measured in a Modulus Microplate reader (Promega, Madison, Wis.) at 590 nm and compared to cells treated with DMSO.
as §1, with “density” for “density (10,000 cells per well)”, “compounds identified in Table 7.” for “Eggmanone.”

H82 = assay: Cell killing EC50 in H82 lung cancer cells (Table 10); type: cell-based; conditions: human cancer cells
Protocol: It is anticipated that compounds disclosed herein could serve as an anti-tumor, anti-angiogenic, anti-metastatic, agent in the treatment of cancer. To this end, a series of clinically relevant cancer lines were assayed and the cell-killing EC50s for compounds according to the subject matter disclosed herein are provided in Table 10.

[1] = tested on: Hedgehog signaling (Gli-Luc reporter); assay: Hh Gli-Luciferase reporter assay in Shh-Light2 cells; type: cell-based, mouse; conditions: for IC50 / EC50: Mus musculus, Shh Light2; for Sonic hedgehog (SHH)-responsive Gli-luciferase reporter activity: Shh-conditioned media; for Purmorphamine-induced Gli-Luc reporter activity: purmorphamine 3 μM; for EC50: Table 9A, read-out: Shh Light2 Luc EC50
Procedure, shortened: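 Shh-Light2 cells with stable Gli-luciferase were stimulated by Shh-conditioned medium (or 3 μM purmorphamine or 20 nM SAG), or transfected with Gli-2, PDE4D3 or DN-PDE4D3. Overnight compound incubation preceded Steady-Glo read-out, normalized to CellTiter-Glo.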

DU145 = assay: Cell viability assay (CellTiter-Blue, 72 hr); type: cell-based, Human
Procedure, shortened: (§2)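 Low-density seeding, 10,000 cells/well; graded compound concentrations; readout A590 vs DMSO vehicle control.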

HeLa = assay: Cell viability assay (CellTiter-Blue, 72 hr); type: cell-based, Human
Procedure, shortened: as §2

SW480 = assay: Cell viability assay (CellTiter-Blue, 72 hr); type: cell-based, Human; conditions: SW480; human cancer cells; read-out: CELL KILLING EC50 (μM) Colon SW480
Procedure, shortened: as §2

zebrafish embryos = assay: Zebrafish embryo phenotypic assay (ZF); type: in vivo; conditions: for Hh-deficient mutant phenotype in embryos: 2 μM from 4 hpf where stated
Procedure, shortened: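 Wild-type AB zebrafish embryos (~10) in E3 egg water dosed at 5 hours post-fertilization from 1 mM or 10 mM DMSO stock. Scored for gross morphological changes at 24, 48 and 72 hpf. Screening run used 5 μM final, added ~4 hpf, incubated at 28.5 °C.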

PKA activation = assay: Immunostaining of autophosphorylated PKA catalytic subunit in NIH3T3 cells; type: cell-based; conditions: SAG-stimulated NIH3T3 cells, Egm 5 μM, Rolipram 10 μM
Protocol: NIH3T3 cells were plated on Poly-D-Lysine-coated glass coverslips and were cultured at 37° C., 5% CO2 in DMEM medium containing 10% fetal bovine serum until reaching 75% confluency. For one set of experiments, cells were then transfected with VSV-tagged PDE4D3 plasmid (gift from Miles Houslay, University of Glasgow, Scotland, UK) using Fugene6 transfection reagent (Roche, Indianapolis, Ind.) per manufacturer's protocol. Afterward, cell medium was replaced with DMEM/0.5% FBS containing either 5 μM eggmanone or DMSO and incubated overnight at 37° C., 5% CO2. Cells were fixed in 4% PFA at room temperature for 10 minutes prior to permeabilization, blocking, and staining with primary antibodies against Arl13b (gift of Tamary Caspary, Emory University, Atlanta, Ga.) and VSV (AbCam, Cambridge, Mass.). Fluorescent immunocytochemistry was performed using species-specific, secondary antibodies (Jackson Immunoresearch, West Grove, Pa.). For additional immunocytochemistry experiment, cells were treated with 20 nM SAG in the presence or absence of 5 uM Eggmanone. After overnight incubation, cells were washed with PBS, fixed for 10 minutes in 4% PFA, permeabilized 20 minutes at −20C with cold methanol, blocked with PBS/1% BSA, and incubated with primary antibodies to phospho-PKA catalytic domain Thr197 (Cell Signaling, Danvers, Mass.) and then to Arl13b. An additional overnight blocking step using unconjugated rabbit IgG was required between primary antibody incubations since both antibodies were produced in rabbit. Fluorescent conjugated secondary antibodies were used for visualization. Data analysis was performed in part through the use of the VUMC Cell Imaging Shared Resource.
Using ImageJ software (National Institutes of Health, developed by W. Rasband), a region of interest was created using the magic wand tool on Arl13b channel and transposed to the Gli2 channel, and integrated density was measured and reported as arbitrary units (a.u.). For phospho-PKA, using ImageJ, a line selection tool was used to select a line projected through the length of the primary cilia and an equal length beyond. The intensity values were potted and the cumulative florescence (area under the curve) was calculated for three cilia, blindly, for each treatment. These values for cilia and pericilia domain were analyzed by a two tailed students t-test. For correlation analysis, correlation coefficient for intensity of gamma-tubulin and phosphor-PKA were calculated and compared among treatments with students t-test.

[2] = tested on: total cellular cAMP levels; assay: cAMP assay (total cellular cAMP, EIA chemiluminescence); type: cell-based
Protocol: Shh-Light2 cells were seeded in a 96-well plate and incubated overnight. Varying concentrations of Rolipram or Eggmanone (0.013 uM-30 uM) or DMSO only were added to the cells in the absence of serum and incubated 30 minutes, at which time forskolin was added for a final concentration of 1 uM. After an additional 15 minutes, cells were washed with PBS and assayed for cAMP levels using EIA based chemiluminescence kit according to the manufacturer's protocol (Cell Signaling Technologies, Danvers, Mass.).

[3] = DU-145, human cancer cells, read-out: CELL KILLING EC50 (μM) Prostate DU145
[4] = human cancer cells, read-out: CELL KILLING EC50 (μM) Cervix HeLa

C=C(C)Cn1c(SCC(=O)c2ccncc2)nc2sc3c(c2c1=O)CCCC3 [JEH-3-048-1]
CELL KILLING EC50 (μM) Breast MCF7 (MCF7): UnCh | CELL KILLING EC50 (μM) Lung H82 (H82): UnCh | IC50 [1]: 10 µM | EC50 (DU145; [3]): 100 µM | EC50 (HeLa; [4]): 23.6 µM | EC50 (SW480): 1.87 µM

O=C(CSc1nc2sc3c(c2c(=O)n1C1CC1)CCCC3)c1cccs1 [JEH-3-039-2]
ZF Phenotype EC100 (zebrafish embryos; wild-type embryonic zebrafish, dosed 5 hpf): 0.1 µM

C=C(C)Cn1c(SCC(=O)c2cccs2)nc2sc3c(c2c1=O)CCCC3 [Eggmanone, 3-(2-methylallyl)-2-((2-oxo-2-(thiophen-2-yl)ethyl)thio)-5,6,7,8-tetrahydrobenzo[4,5]thieno[2,3-d]pyrimidine-4(3H)-one]
Hh-deficient mutant phenotype in embryos (zebrafish embryos): caused a number of phenotypes resembling those of Hh-deficient mutant embryos; also recorded: exhibited range of phenotypes found in Hh pathway mutants | Hh-deficient mutant phenotype in embryos (zebrafish embryos; listed as eggmanone): caused a number of phenotypes resembling those of Hh-deficient mutant embryos | IC50 [1]: 1.5 µM | Sonic hedgehog (SHH)-responsive Gli-luciferase reporter activity [1]: inhibited Hh-inducible Gli-responsive luciferase (Gli-Luc) activity in a dose dependent manner | Sonic hedgehog (SHH)-responsive Gli-luciferase reporter activity ([1]; listed as eggmanone): inhibited Hh-inducible Gli-responsive luciferase (Gli-Luc) activity in a dose dependent manner | Purmorphamine-induced Gli-Luc reporter activity [1]: blocked Gli-Luc reporter and ptch1 induction by purmorphamine | PKA activation (phospho-PKA-C staining), spatial distribution (PKA activation): significantly increased the intensity of PKA activation almost exclusively at the basal body | PKA activation (phospho-PKA-C staining), spatial distribution (PKA activation; listed as eggmanone): significantly increased the intensity of PKA activation almost exclusively in the basal body | Total cellular cAMP levels [2]: had no effect on total cellular cAMP content; also recorded: did not significantly increase total cAMP levels | Total cellular cAMP levels ([2]; listed as eggmanone): did not increase total cAMP levels

C=C(C)Cn1c(SCC(=O)c2cccs2)nc2sc3c(c2c1=O)CCCC3 [EGM, Eggmanone]
Hh-deficient mutant phenotype in embryos (zebrafish embryos): exhibited range of phenotypes found in Hh pathway mutants | CELL KILLING EC50 (μM) Breast MCF7 (MCF7): UnCh | CELL KILLING EC50 (μM) Lung H82 (H82): UnCh | Sonic hedgehog (SHH)-responsive Gli-luciferase reporter activity [1]: inhibited Sonic hedgehog (SHH)-responsive Gli-luciferase (Gli-Luc) reporter activity in a dose-dependent manner | Purmorphamine-induced Gli-Luc reporter activity [1]: inhibited purmorphamine (Purm, 3 μM)-induced Gli-Luc reporter activity in a dose-dependent manner | PKA activation (phospho-PKA-C staining), spatial distribution (PKA activation): increases local PKA activation at the base of the primary cilia; also recorded: spatially restricted activation of PKA around the centrosome | PKA activation (phospho-PKA-C staining), spatial distribution (PKA activation; listed as Egm): increases local PKA activation at the base of the primary cilia; also recorded: increases local PKA activation at the basal body | Total cellular cAMP levels [2]: without raising total cellular cAMP content | Total cellular cAMP levels ([2]; listed as Egm): only caused small increase at concentrations above those required to inhibit Hh signaling | EC50 (DU145; [3]): 41.9 µM | EC50 (HeLa; [4]): 12.4 µM | EC50 (SW480): 0.534 µM

C=C(C)Cn1c(SCC(=O)c2nccs2)nc2sc3c(c2c1=O)CCCC3 [JEH-3-069-1]
CELL KILLING EC50 (μM) Breast MCF7 (MCF7): UnCh | CELL KILLING EC50 (μM) Lung H82 (H82): UnCh | EC50 [1]: 10 to 20 µM | EC50 (DU145; [3]): 47.5 µM | EC50 (HeLa; [4]): 100 µM | EC50 (SW480): 6.92 µM

C=C(C)Cn1c(SCC(=O)c2ccccn2)nc2sc3c(c2c1=O)CCCC3 [JEH-3-063]
CELL KILLING EC50 (μM) Breast MCF7 (MCF7): UnCh | CELL KILLING EC50 (μM) Lung H82 (H82): UnCh | IC50 [1]: 15 µM | EC50 [1]: 10 to 20 µM | EC50 (DU145; DU-145, 72 h, read-out: EC50 (50% reduction of viable cell count at 72 hours), DU145, Human Prostate Adenocarcinoma): 0.684 µM | EC50 (DU145; [3]): 0.684 µM | EC50 (HeLa; 72 h, read-out: EC50 (50% reduction of viable cell count at 72 hours), Human Cervical Adenocarcinoma): 9.2 µM | EC50 (HeLa; [4]): 9.18 µM | EC50 (SW480): 8.05 µM

C=CCn1c(SCC(=O)c2cccs2)nc2sc3c(c2c1=O)CCCC3 [JEH-3-039-3]
CELL KILLING EC50 (μM) Breast MCF7 (MCF7): UnCh | CELL KILLING EC50 (μM) Lung H82 (H82): UnCh | EC50 (DU145; [3]): 71 µM | EC50 (HeLa; [4]): 36.9 µM | EC50 (SW480): 3.63 µM
